In ChEMBL document CHEMBL1132245, “Novel and potent 6-chloro-3-pyridinyl ligands for the alpha4beta2 neuronal nicotinic acetylcholine receptor” (J Med Chem, 1999):

What was measured:
Type in all cases: protein-complex assay
[1] = target: T1, Neuronal acetylcholine receptor; alpha4/beta2 (Rattus norvegicus, UniProt P09483+P12390); assay: Inhibition of [3H](-)-nicotine binding to recombinant rat alpha4-beta2 nAChR.
[2] = target: T1, Neuronal acetylcholine receptor; alpha4/beta2; assay: Inhibition of [3H](-)-nicotine binding to recombinant rat alpha4-beta2 nAChR was determined; experiment 2
[3] = target: T1, Neuronal acetylcholine receptor; alpha4/beta2; assay: Inhibition of [3H](-)-nicotine binding to recombinant rat alpha4-beta2 nAChR was determined; experiment 1

T1 sequence (P09483 whole entry): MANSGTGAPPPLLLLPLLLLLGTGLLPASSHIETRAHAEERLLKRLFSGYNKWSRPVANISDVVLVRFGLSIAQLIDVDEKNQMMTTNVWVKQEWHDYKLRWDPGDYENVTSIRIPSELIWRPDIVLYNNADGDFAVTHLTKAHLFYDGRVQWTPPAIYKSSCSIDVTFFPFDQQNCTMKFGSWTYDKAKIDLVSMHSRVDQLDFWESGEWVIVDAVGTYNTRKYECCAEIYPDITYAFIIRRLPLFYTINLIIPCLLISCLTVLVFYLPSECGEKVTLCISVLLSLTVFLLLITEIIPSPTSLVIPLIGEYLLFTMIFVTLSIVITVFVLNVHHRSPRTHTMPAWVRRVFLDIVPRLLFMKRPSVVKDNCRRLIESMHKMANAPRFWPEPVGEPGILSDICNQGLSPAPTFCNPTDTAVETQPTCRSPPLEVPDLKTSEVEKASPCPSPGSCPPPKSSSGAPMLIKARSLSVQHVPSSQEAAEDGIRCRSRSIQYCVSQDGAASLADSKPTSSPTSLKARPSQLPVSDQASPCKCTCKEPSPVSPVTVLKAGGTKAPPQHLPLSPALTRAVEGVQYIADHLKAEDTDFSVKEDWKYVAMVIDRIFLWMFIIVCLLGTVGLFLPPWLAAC
T1 sequence (P12390 whole entry): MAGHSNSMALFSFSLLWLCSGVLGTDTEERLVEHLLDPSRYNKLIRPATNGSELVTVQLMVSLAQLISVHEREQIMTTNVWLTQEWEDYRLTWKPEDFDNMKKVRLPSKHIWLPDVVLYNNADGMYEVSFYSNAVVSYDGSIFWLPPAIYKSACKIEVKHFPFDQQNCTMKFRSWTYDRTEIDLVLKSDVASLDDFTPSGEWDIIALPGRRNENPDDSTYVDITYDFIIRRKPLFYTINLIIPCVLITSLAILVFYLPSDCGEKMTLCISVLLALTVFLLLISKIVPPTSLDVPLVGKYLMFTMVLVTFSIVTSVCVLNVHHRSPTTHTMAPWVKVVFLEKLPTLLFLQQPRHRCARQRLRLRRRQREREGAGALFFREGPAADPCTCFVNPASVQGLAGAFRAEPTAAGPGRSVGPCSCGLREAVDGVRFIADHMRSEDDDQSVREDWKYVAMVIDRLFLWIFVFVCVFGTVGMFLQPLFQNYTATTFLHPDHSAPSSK

Row | SMILES | IC50 [1] [µM] | IC50 [2] [µM] | IC50 [3] [µM]
1 | Clc1ccc(Cn2ccnc2)cn1 | 0.45 | – | –
2 | NC1=NCCCS1 | 160 | – | –
3 | Clc1ccc(CN2CCN(Cc3ccc(Cl)nc3)CC2)cn1 | – | 1.65 | 1.74
4 | SC1=NCCN1Cc1ccc(Cl)nc1 | – | 13.5 | 12.6
5 | NC1=NCCO1 | – | 95.3 | 99.5
6 | CN1CCCC1c1ccc(Cl)nc1 (stereo not drawn) | 0.0019 | – | –
7 | CN1CCCC1c1cccnc1Cl (stereo not drawn) | 3.2 | – | –
8 | O=C1NCCN1Cc1ccc(Cl)nc1 | 8.1 | – | –
9 | CCN(Cc1ccc(Cl)nc1)C(=N)NC | 3.3 | – | –
10 | N=C1NCCN1Cc1ccc(Cl)nc1 [DESNITROIMIDACLOPRID] | 0.006 | – | –
